# Patent publication US20240208964A1, “PYRIDOPYRIMIDINES AND METHODS OF THEIR USE” (PYRIDOPYRIMIDINES AND METHODS OF THEIR USE, priority 2020, published 2024)
# Biological target: full-length human PIKFYVE (GST-PIKFYVE) (Homo sapiens (Human), UniProt Q9Y2I7, L932S/Q1183K/Q995L/S1033A/S696N/T998S)
# Assay: PIKfyve biochemical assay (ADP-Glo Kinase assay, Carna Biosciences)
# Conditions: ADP-Glo, full-length human PIKFYVE; read-out: hPIKfyve IC50
# Description: PIKfyve Biochemical Assay. The biochemical PIKFyve inhibition assays were run by Carna Biosciences according to proprietary methodology based on the Promega ADP-Glo™ Kinase assay. A full-length human PIKFYVE [1-2098(end) amino acids and S696N, L932S, Q995L, T998S, S1033A and Q1183K of the protein having the sequence set forth in NCBI Reference Sequence No. NP_055855.2] was expressed as N-terminal GST-fusion protein (265 kDa) using baculovirus expression system. GST-PIKFYVE was purified by using glutathione sepharose chromatography and used in an ADP-Glo™ Kinase assay (Promega). Reactions were set up by adding the test compound solution, substrate solution, ATP solution and kinase solution, each at 4× final concentrations. Reactions were prepared with assay buffer (50 mM MOPS, 1 mM DTT, pH7.2), mixed, and incubated in black 384 well polystyrene plates for 1 hour at room temperature. ADP-Glo™ reagent was then added for 40 minutes, followed by kinase detection reagent for an additional 40 minutes. The kinase activity was evaluated by detecting relative light units on a luminescence plate reader. Samples were run in duplicate from 10 μM to 3 nM. […] IC50 values were calculated from concentration vs % inhibition curves by fitting to a four-parameter logistic curve.
# The biochemical PIKFyve inhibition assays were run by Carna Biosciences according to proprietary methodology based on the Promega ADP-Glo™ Kinase assay. A full-length human PIKFYVE [1-2098(end) amino acids and S696N, L932S, Q995L, T998S, S1033A and Q1183K of accession number NP_055855.2] was expressed as N-terminal GST-fusion protein (265 kDa) using baculovirus expression system. GST-PIKFYVE was purified by using glutathione sepharose chromatography and used in an ADP-Glo™ Kinase assay (Promega).
# Reactions were set up by adding the test compound solution, substrate solution, ATP solution and kinase solution, each at 4× final concentrations. Reactions were prepared with assay buffer (50 mM MOPS, 1 mM DTT, pH7.2), mixed, and incubated in black 384 well polystyrene plates for 1 hour at room temperature. ADP-Glo™ reagent was then added for 40 minutes, followed by kinase detection reagent for an additional 40 minutes. The kinase activity was evaluated by detecting relative light units on a luminescence plate reader. Samples were run in duplicate from 10 uM to 3 nM. […] IC50 values were calculated from concentration vs % inhibition curves by fitting to a four-parameter logistic curve.
# full-length human PIKFYVE (GST-PIKFYVE), sequence (Q9Y2I7 whole entry S696N/L932S/Q995L/T998S/S1033A/Q1183K): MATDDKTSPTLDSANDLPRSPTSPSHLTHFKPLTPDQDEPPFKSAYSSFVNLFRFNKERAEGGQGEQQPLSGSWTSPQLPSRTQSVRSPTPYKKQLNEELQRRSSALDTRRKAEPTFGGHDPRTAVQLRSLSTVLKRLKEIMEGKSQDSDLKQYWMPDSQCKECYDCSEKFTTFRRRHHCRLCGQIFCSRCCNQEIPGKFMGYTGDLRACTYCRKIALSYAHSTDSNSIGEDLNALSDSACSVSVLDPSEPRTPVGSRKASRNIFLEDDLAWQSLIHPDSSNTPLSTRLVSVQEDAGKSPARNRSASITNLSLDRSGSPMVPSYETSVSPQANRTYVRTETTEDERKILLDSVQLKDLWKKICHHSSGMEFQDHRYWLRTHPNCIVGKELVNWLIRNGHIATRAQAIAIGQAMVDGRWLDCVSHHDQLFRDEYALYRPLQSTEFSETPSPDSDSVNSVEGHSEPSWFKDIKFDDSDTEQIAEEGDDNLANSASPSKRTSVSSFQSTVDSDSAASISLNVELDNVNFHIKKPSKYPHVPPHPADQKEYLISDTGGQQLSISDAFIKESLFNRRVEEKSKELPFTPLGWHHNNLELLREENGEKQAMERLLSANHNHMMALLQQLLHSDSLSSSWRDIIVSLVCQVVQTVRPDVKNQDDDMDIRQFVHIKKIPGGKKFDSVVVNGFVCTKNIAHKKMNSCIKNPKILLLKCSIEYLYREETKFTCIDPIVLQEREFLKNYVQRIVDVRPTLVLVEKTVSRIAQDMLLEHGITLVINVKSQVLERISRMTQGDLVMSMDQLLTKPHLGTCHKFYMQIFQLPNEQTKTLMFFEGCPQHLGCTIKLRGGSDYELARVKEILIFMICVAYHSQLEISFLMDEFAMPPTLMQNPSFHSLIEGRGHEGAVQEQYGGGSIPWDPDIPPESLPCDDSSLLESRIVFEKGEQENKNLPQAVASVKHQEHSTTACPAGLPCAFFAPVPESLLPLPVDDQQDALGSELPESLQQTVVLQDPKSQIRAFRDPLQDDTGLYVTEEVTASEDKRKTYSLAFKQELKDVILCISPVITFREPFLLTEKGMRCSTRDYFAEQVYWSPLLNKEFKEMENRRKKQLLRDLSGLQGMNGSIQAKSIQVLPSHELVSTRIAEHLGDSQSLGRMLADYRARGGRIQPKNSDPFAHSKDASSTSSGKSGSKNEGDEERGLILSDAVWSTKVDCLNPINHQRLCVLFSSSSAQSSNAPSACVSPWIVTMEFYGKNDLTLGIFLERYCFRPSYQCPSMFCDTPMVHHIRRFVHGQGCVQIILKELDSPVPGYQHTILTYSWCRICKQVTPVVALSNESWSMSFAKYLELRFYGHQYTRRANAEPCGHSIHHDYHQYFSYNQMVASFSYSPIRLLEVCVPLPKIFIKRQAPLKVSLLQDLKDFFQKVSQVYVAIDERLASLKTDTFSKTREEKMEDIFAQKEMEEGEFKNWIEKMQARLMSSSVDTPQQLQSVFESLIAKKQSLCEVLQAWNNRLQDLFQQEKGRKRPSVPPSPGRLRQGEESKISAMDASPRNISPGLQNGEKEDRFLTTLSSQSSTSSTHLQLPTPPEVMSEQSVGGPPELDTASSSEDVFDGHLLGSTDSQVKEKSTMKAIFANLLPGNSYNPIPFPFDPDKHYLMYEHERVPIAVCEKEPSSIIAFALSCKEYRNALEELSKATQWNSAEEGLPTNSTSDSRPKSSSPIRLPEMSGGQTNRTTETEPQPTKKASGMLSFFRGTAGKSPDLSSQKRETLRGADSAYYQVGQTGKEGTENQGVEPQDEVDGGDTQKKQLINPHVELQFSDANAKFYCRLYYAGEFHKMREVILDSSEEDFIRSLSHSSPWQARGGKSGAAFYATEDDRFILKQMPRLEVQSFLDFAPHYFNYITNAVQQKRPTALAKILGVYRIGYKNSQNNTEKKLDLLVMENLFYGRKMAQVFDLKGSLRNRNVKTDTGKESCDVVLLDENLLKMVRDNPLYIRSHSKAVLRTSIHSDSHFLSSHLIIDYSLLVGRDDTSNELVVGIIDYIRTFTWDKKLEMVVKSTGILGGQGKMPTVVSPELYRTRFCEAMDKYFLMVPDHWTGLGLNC
row,Structure (SMILES),IC50 [nM]
1,"CCC(=O)N1CCC(c2ccn(-c3nc(N4CCOCC4)c4ncccc4n3)n2)CC1 [compound 1, 1-[4-[1-(4-morpholinopyrido[3,2-d]pyrimidin-2-yl)pyrazol-3-yl]-1-piperidyl]propan-1-one]",1000 to 10000
2,"c1cnc2c(N3CCOCC3)nc(-n3ccc(-c4cncnc4)n3)nc2c1 [compound 2, 4-[2-(3-pyrimidin-5-ylpyrazol-1-yl)pyrido[3,2-d]pyrimidin-4-yl]morpholine]",1000 to 10000
3,"CC(C)(C)OC(=O)N1CC=C(c2ccn(-c3nc(N4CCOCC4)c4ncccc4n3)n2)CC1 [compound 3, tert-butyl 4-[1-(4-morpholinopyrido[3,2-d]pyrimidin-2-yl)pyrazol-3-yl]-3,6-dihydro-2H-pyridine-1-carboxylate]",1000 to 10000
4,"CC(C)(C)OC(=O)N1CCC=C(c2ccn(-c3nc(N4CCOCC4)c4ncccc4n3)n2)C1 [compound 4, tert-butyl 3-(1-(4-morpholinopyrido[3,2-d]pyrimidin-2-yl)-1H-pyrazol-3-yl)-5,6-dihydropyridine-1(2H)-carboxylate]",1000 to 10000
5,"CC(C)(C)OC(=O)N1CCC(c2ccn(-c3nc(N4CCOCC4)c4ncccc4n3)n2)CC1 [compound 5, tert-butyl 4-[1-(4-morpholinopyrido[3,2-d]pyrimidin-2-yl)pyrazol-3-yl]piperidine-1-carboxylate]",1000 to 10000
6,"CC(C)(C)OC(=O)N1CCCC(c2ccn(-c3nc(N4CCOCC4)c4ncccc4n3)n2)C1 (stereo not shown) [compound 6, tert-butyl 3-(1-(4-morpholinopyrido[3,2-d]pyrimidin-2-yl)-1H-pyrazol-3-yl)piperidine-1-carboxylate]",1000 to 10000
7,"c1ccc2nn(-c3nc(N4CCOCC4)c4ncccc4n3)cc2c1 [compound 7, 4-(2-indazol-2-ylpyrido[3,2-d]pyrimidin-4-yl)morpholine]",100 to 1000
8,"CC(C)c1ccn(-c2nc(N3CCOCC3)c3ncccc3n2)n1 [compound 9, 4-(2-(3-isopropyl-1H-pyrazol-1-yl)pyrido[3,2-d]pyrimidin-4-yl)morpholine]",1000 to 10000
9,"c1cnc2c(N3CCOCC3)nc(-n3ccc(-c4ccncc4)n3)nc2c1 [compound 10, 4-(2-(3-(pyridin-4-yl)-1H-pyrazol-1-yl)pyrido[3,2-d]pyrimidin-4-yl)morpholine]",100 to 1000
10,"c1cncc(-c2ccn(-c3nc(N4CCOCC4)c4ncccc4n3)n2)c1 [compound 11, 4-(2-(3-(pyridin-3-yl)-1H-pyrazol-1-yl)pyrido[3,2-d]pyrimidin-4-yl)morpholine]",100 to 1000
11,"c1ccc(-c2ccn(-c3nc(N4CCOCC4)c4ncccc4n3)n2)nc1 [compound 12, 4-(2-(3-(pyridin-2-yl)-1H-pyrazol-1-yl)pyrido[3,2-d]pyrimidin-4-yl)morpholine]",10 to 100
12,c1ccc(-c2ccn(-c3nc(N4CCOCC4)c4ccncc4n3)n2)cc1 [compound 13],100 to 1000
13,"CCc1cnc2c(N3CCOCC3)nc(-n3ccc(-c4ccncc4)n3)nc2c1 [compound 14, 4-(7-Ethyl-2-(3-(pyridin-4-yl)-1H-pyrazol-1-yl)pyrido[3,2-d]pyrimidin-4-yl)morpholine]",1000 to 10000
14,"c1ccc(Nc2nc(N3CCOCC3)c3ncc(-c4ccco4)cc3n2)cc1 [compound 15, 7-(furan-2-yl)-4-morpholino-N-phenylpyrido[3,2-d]pyrimidin-2-amine]",100 to 1000
15,"c1ccc(Oc2nc(N3CCOCC3)c3ncc(-c4ccco4)cc3n2)cc1 [compound 16, 4-(7-(furan-2-yl)-2-phenoxypyrido[3,2-d]pyrimidin-4-yl)morpholine]",> 10000
16,"c1ccc(-c2ccn(-c3nc(N4CCOCC4)c4ncc(C5CCCOC5)cc4n3)n2)cc1 (stereo not shown) [compound 19, 4-(2-(3-Phenyl-1H-pyrazol-1-yl)-7-(tetrahydro-2H-pyran-3-yl)pyrido[3,2-d]pyrimidin-4-yl)morpholine]",10 to 100

# Same assay, conditions: values plotted in FIG. 7; read-out: PIKFYVE Biochemistry (IC50)
row,Structure (SMILES),IC50 [nM]
1,c1ccc(-c2nc(-c3cc(N4CCOCC4)nc(OCc4ccncc4)n3)no2)cc1,> 10000
2,O=c1c(CCOc2cccnc2)cc2ncncc2n1-c1ccccc1,> 10000
3,O=c1ccn(Cc2nc(N3CCOCC3)cc(-n3nccc3-c3ccccc3)n2)cc1,> 10000
